The assay concerns Melanoma cells of the Sk-MEL-28 cell line. As to the kind of experiment: Drug test with doxorubicin in modular cancer/BM/stroma ribbon fibres, Calcein AM / Propidium Iodide viability. In kind it is cell-based, human. To be noted: 1 μM Doxorubicin, 24 h treatment. An excerpt:
Melanoma cells of the Sk-MEL-28 (ATCC) cell line were encapsulated in the GG/GelMA compartment and human dermal fibroblasts (hDFs) were encapsulated in the GG compartment, both representing the cancer and stroma, respectively, separated by the basement-membrane-mimicking GelTrex/HA. […] In order to track the different cell types, these were stained with CellBrite Green and Orange (Biotium) according to the manufacturer's instructions. […] With this model, melanoma cells were included in the cancer compartment, and dermal fibroblasts within the stromal compartment, both separated by a GelTrex BM in a unique melanoma-on-a-fibre structure. Fibres with tracked cells were observed under an Inverted Confocal Laser Scanning Microscope (Leica), throughout one week of culture.
For the drug tests, fibroblasts were stained blue prior to encapsulation using CellTracker blue CMAC Dye (7-amino 4-chloromethylcoumarin, Molecular Probes) according to manufacturer's instructions. These were then integrated in the fibres together with the cancer cells, and all modular fibres were produced. 24 h after fabrication, fibres were incubated with either culture medium (no treatment) or culture medium containing 1 μM of Doxorubicin (Carbosynth). One day after treatment, samples were incubated with medium containing 1:1000 dilution of Calcein AM (Thermofisher) and 1 μg/mL Propidium Iodide (Molecular Probes) for 30 mins at 37° C., 5% CO2, for viability assessment. Images of the fibres were acquired in the Axio Observer inverted Microscope (Zeiss), and a cell profiler pipeline was used to derive the numbers of live and dead cells using the blue staining to distinguish fibroblasts from melanoma cells. Similarly, 2D controls were obtained by simply seeding the cells individually or in co-culture in 24 well-plates at a density of 20×10^3 cells per well (10×10^3 cells of each type in the case of co-cultures). 2D controls were then processed in the same way as the fibres. […]

Take `COc1cccc2c1C(=O)c1c(O)c3c(c(O)c1C2=O)C[C@@](O)(C(=O)CO)C[C@@H]3O[C@H]1C[C@H](N)[C@H](O)[C@H](C)O1` [Doxorubicin]: the “cancer cell viability vs. the control” value runs as follows: (cancer-only fibres) “significant drop in viability”; (cancer/stroma fibres (no BM)) “no longer significant”. Further, the “numbers of live cancer cells upon treatment” value (full cancer/BM/stroma fibres) is “numbers of live cancer cells can improve”.

These data come from US20230085686A1, “Multicompartement hydrogel fibre their preparation and uses thereof” (Association For The Advancement Of Tissue Engineering And …, priority 2020, published 2023).
